We go through 1 compound from publication PMC5446859 (2017).

The test system of the assay is DNAzyme-aptamer (DNA, aptamer) TGGGTAGGGCGGGTTGGGAAAGTTGGGCACGTGTTGTCTCTCTGTGTCTCGTGCCCTTCGCTAGGCCCAC
The assay can be described thus: peroxidase activity (TMB), blocker hybridization. Conditions: 120 mM NaCl, 5 mM KCl, 2.5 mM MgCl2; 10 mM Tris-HCl pH 8; hemin prevents hybridization of blocker; qualitative, indirect.

`C=CC1=C(C)C2=Cc3c(C=C)c(C)c4[n]3[Fe]([Cl])[n]3c(c(C)c(CCC(=O)O)c3=CC3=NC(=C4)C(C)=C3CCC(=O)O)=CC1=N2`: the binding entry is “yes”.
